Measured values: patent publication EP1981504B1, “THIADIAZOLE DERIVATIVES FOR THE TREATMENT OF NEURO DEGENERATIVE DISEASES” (NV reMYND, priority 2006, dated 2007)
Converted amounts (≈) assume the structure as drawn.

Tested on: M17-SYNwt cells
Experiment: α-synuclein cytotoxicity assay (LDH leakage from paraquat-treated α-synuclein over-expressing neuroblastoma cells)
Assay type: cell-based, human
Details: for EC50 (µg/mL) / %I / EC50: paraquat 32 mM, 40 hours, LDH release; for EC50 (µg/mL) / EC50: 10 point curves in duplicate; for %I: percent inhibition of synuclein cytotoxicity at most effective concentration of test compound, relative to untreated paraquat cells; for LDH activity in the medium: Figure 2, dose response in paraquat-treated M17-SYNwt cells; for EC50: Homo sapiens, Neuroblastoma cell
Method: Subsequently, LDH activity was determined using Promega Cytotox 96 NonRadioactive cytotoxicity assay, (Cat. G1780) according the supplier's instructions.
This corresponds to the following equation: (LDHreleaseoftreatedparaquatcellsatnon-effectiveconcentrationoftestcmpd)−(LDHreleaseoftreatedparaquatcellsatmosteffectiveconcentrationoftestcmpd)/(LDHreleaseofuntreatedparaquatcells)−(LDHreleasecontrolcells)*100% [formula]
1,2,4-thiadazole compounds made according to the methods described herein were screened for activity using the α-synuclein cytotoxicity assay as described above. Dose responses were carried out on all compounds found to be active (10 point curves in duplicate).

1-(3-methylbenzoyl)-4-[3-(4-methylbenzyl)-1,2,4-thiadiazol-5-yl]-2-methylpiperazine [Compound 144]
EC50 (µg/mL): 0,56 µg/mL
%I: 64%

1-(4-methoxybenzoyl)-4-[3-(4-methylbenzyl)-1,2,4-thiadiazol-5-yl]-2-methylpiperazine [Compound 130]
EC50 (µg/mL): 0,25 µg/mL
%I: 118%

1-(phenylprop-2-ensulfonyl)-4-[3-(4-fluorobenzyl)-1,2,4-thiadiazol-5-yl]piperazine [Compound 78]
EC50 (µg/mL): 0,13 µg/mL
%I: 75%

1-(phenylprop-2-ensulfonyl)-4-[3-(4-methylbenzyl)-1,2,4-thiadiazol-5-yl]-2-methylpiperazine [Compound 79]
EC50 (µg/mL): 0,17 µg/mL
%I: 53%

1-(phenylprop-2-ensulfonyl)-4-[3-(4-methylbenzyl)-1,2,4-thiadiazol-5-yl]piperazine [Compound 80]
EC50 (µg/mL): 0,056880 µg/mL
%I: 70%

1-[3-trifluorophenylsulfonyl]-4-[3-(4-fluorobenzyl)-1,2,4-thiadiazol-5-yl]-2-methylpiperazine [Compound 46]
EC50 (µg/mL): 1,34 µg/mL
%I: 64%

1-[4-bromophenylsulfonyl]-4-[3-(4-methylbenzyl)-1,2,4-thiadiazol-5-yl]-3-methylpiperazine [Compound 40]
EC50 (µg/mL): 0,099855 µg/mL
%I: 77%

2-phenyl-N-{2-[4-[3-(4-fluorobenzyl)-1,2,4-thiadiazol-5-yl]piperazin-1-yl]ethyl}butanamide [Compound 111]
LDH activity in the medium: able, in a dose-dependent manner, to reduce LDH activity in the medium
EC50 (µg/mL): 1,79 µg/mL
%I: 79%

3-phenyl-N-{2-[4-[3-(4-fluorobenzyl)-1,2,4-thiadiazol-5-yl]piperazin-1-yl]ethyl}propanamide [Compound 112]
EC50 (µg/mL): 0,55 µg/mL
%I: 91%

O=C(Cc1ccccc1)N1CCN(c2nc(Cc3ccc(F)cc3)ns2)CC1 [Compound 1, 4-phenylacetyl-1-[3-(4-fluorobenzyl)-1,2,4-thiadiazol-5-yl]piperazine]
EC50: 0.15 µg/mL (≈ 0.378 µM)
%I: 75%

O=C(Cc1ccc(F)cc1)N1CCN(c2nc(Cc3ccc(F)cc3)ns2)CC1 [Compound 2, 4-(4-fluorophenylacetyl),1-[3-(4-fluorobenzyl)-1,2,4-thiadiazol-5-yl]piperazine]
EC50: 0.25 µg/mL (≈ 0.603 µM)
%I: 54%

Cc1ccc(Cc2nsc(N3CCN(C(=O)Cc4ccc(F)cc4)C(C)C3)n2)cc1 (stereo not drawn) [Compound 3, 1-(4-fluorophenylacetyl)-4-[3-(4-methylbenzyl)-1,2,4-thiadiazol-5-yl]-2-methylpiperazine]
EC50: 2.2 µg/mL (≈ 5.18 µM)
%I: 76%

COc1ccc(CC(=O)N2CCN(c3nc(Cc4ccc(F)cc4)ns3)CC2C)cc1 (stereo not drawn) [Compound 4, 1-(4-methoxyphenylacetyl)-4-[3-(4-fluorobenzyl)-1,2,4-thiadiazol-5-yl]-2-methylpiperazine]
EC50: 0.82 µg/mL (≈ 1.86 µM)
%I: 56%

CC1CN(c2nc(Cc3ccc(F)cc3)ns2)CCN1C(=O)Cc1ccccc1 (stereo not drawn) [Compound 5, 1-phenylacetyl-4-[3-(4-fluorobenzyl)-1,2,4-thiadiazol-5-yl]-2-methylpiperazine]
%I: 83%

CC1CN(c2nc(Cc3ccc(F)cc3)ns2)CCN1C(=O)Cc1ccc(F)cc1 (stereo not drawn) [Compound 6, 1-(4-fluorophenylacetyl)-4-[3-(4-fluorobenzyl)-1,2,4-thiadiazol-5-yl]-2-methylpiperazine]
%I: 75%

CC1CN(c2nc(Cc3ccc(F)cc3)ns2)CCN1C(=O)C(Cl)c1ccccc1 (stereo not drawn) [Compound 7, 1-[chloro(phenyl)acetyl]-4-[3-(4-fluorobenzyl)-1,2,4-thiadiazol-5-yl]-2-methylpiperazine]
%I: 69%

CCC(C(=O)N1CCN(c2nc(Cc3ccc(F)cc3)ns2)CC1C)c1ccccc1 (stereo not drawn) [Compound 8, 1-(2-phenylbutanoyl)-4-[3-(4-fluorobenzyl)-1,2,4-thiadiazol-5-yl]-2-methylpiperazine]
EC50: 1.49 µg/mL (≈ 3.4 µM)
%I: 71%

O=C(Nc1cccc(F)c1)N1CCN(c2nc(Cc3ccc(F)cc3)ns2)CC1 [Compound 9, N-(3-fluorophenyl)-4-[3-(4-fluorobenzyl)-1,2,4-thiadiazol-5-yl]piperazine-1-carboxamide]
EC50: 0.52 µg/mL (≈ 1.25 µM)
%I: 53%

Cc1ccccc1NC(=O)N1CCN(c2nc(Cc3ccc(F)cc3)ns2)CC1C (stereo not drawn) [Compound 10, N-(2-methylphenyl)-4-[3-(4-fluorobenzyl)-1,2,4-thiadiazol-5-yl]-2-methylpiperazine-1-carboxamide]
EC50: 0.6 µg/mL (≈ 1.41 µM)
%I: 72%

CCc1ccc(NC(=O)N2CCN(c3nc(Cc4ccc(F)cc4)ns3)CC2C)cc1 (stereo not drawn) [Compound 11, N-(4-ethylphenyl)-4-[3-(4-fluorobenzyl)-1,2,4-thiadiazol-5-yl]-2-methylpiperazine-1-carboxamide]
EC50: 0.69 µg/mL (≈ 1.57 µM)
%I: 73%

CCc1ccccc1NC(=O)N1CCN(c2nc(Cc3ccc(F)cc3)ns2)CC1C (stereo not drawn) [Compound 12, N-(2-ethylphenyl)-4-[3-(4-fluorobenzyl)-1,2,4-thiadiazol-5-yl]-2-methylpiperazine-1-carboxamide]
EC50: 0.89 µg/mL (≈ 2.02 µM)
%I: 92%

O=C(Nc1ccccc1)N1CCN(c2nc(Cc3ccc(F)cc3)ns2)CC1 [Compound 13, N-phenyl-4-[3-(4-fluorobenzyl)-1,2,4-thiadiazol-5-yl]piperazine-1-carboxamide]
EC50: 1.23 µg/mL (≈ 3.09 µM)
%I: 71%

CCOc1ccc(NC(=O)N2CCN(c3nc(Cc4ccc(F)cc4)ns3)CC2C)cc1 (stereo not drawn) [Compound 14, N-(4-ethoxyphenyl)-4-[3-(4-fluorobenzyl)-1,2,4-thiadiazol-5-yl]-2-methylpiperazine-1-carboxamide]
EC50: 1.73 µg/mL (≈ 3.8 µM)
%I: 70%

Cc1ccccc1NC(=O)N1CCN(c2nc(Cc3ccc(F)cc3)ns2)CC1 [Compound 15, N-(2-methylphenyl)-4-[3-(4-fluorobenzyl)-1,2,4-thiadiazol-5-yl]piperazine-1-carboxamide]
EC50: 5.01 µg/mL (≈ 12.2 µM)
%I: 65%

O=C(Nc1ccccc1F)N1CCN(c2nc(Cc3ccc(F)cc3)ns2)CC1 [Compound 16, N-(2-fluorophenyl)-4-[3-(4-fluorobenzyl)-1,2,4-thiadiazol-5-yl]piperazine-1-carboxamide]
EC50: 5.68 µg/mL (≈ 13.7 µM)
%I: 72%

O=C(Nc1ccccc1C(F)(F)F)N1CCN(c2nc(Cc3ccc(F)cc3)ns2)CC1 [Compound 17, N-(2-trifluoromethylphenyl)-4-[3-(4-fluorobenzyl)-1,2,4-thiadiazol-5-yl]piperazine-1-carboxamide]
%I: 46%

CC1CN(c2nc(Cc3ccc(F)cc3)ns2)CCN1C(=O)Nc1ccccc1C(F)(F)F (stereo not drawn) [Compound 18, N-(2-trifluoromethylphenyl)-4-[3-(4-fluorobenzyl)-1,2,4-thiadiazol-5-yl]-2-methylpiperazine-1-carboxamide]
%I: 41%

Cc1cccc(C)c1NC(=O)N1CCN(c2nc(Cc3ccc(F)cc3)ns2)CC1C (stereo not drawn) [Compound 19, N-(2,6-dimethylphenyl)-4-[3-(4-fluorobenzyl)-1,2,4-thiadiazol-5-yl]-2-methylpiperazine-1-carboxamide]
LDH activity in the medium: able, in a dose-dependent manner, to reduce LDH activity in the medium
EC50: 0.2 µg/mL (≈ 0.455 µM)
%I: 95%

Cc1ccc(NC(=O)N2CCN(c3nc(Cc4ccc(F)cc4)ns3)CC2C)c(C)c1 (stereo not drawn) [Compound 20, N-(2,4-dimethylphenyl)-4-[3-(4-fluorobenzyl)-1,2,4-thiadiazol-5-yl]-2-methylpiperazine-1-carboxamide]
EC50: 0.76 µg/mL (≈ 1.73 µM)
%I: 106%

CC1CN(c2nc(Cc3ccc(F)cc3)ns2)CCN1C(=O)Nc1ccc(F)cc1F (stereo not drawn) [Compound 23, N-(2,4-difluorophenyl)-4-[3-(4-fluorobenzyl)-1,2,4-thiadiazol-5-yl]-2-methylpiperazine-1-carboxamide]
EC50: 0.94 µg/mL (≈ 2.1 µM)
%I: 66%

Cc1cccc(C)c1NC(=O)N1CCN(c2nc(Cc3ccc(F)cc3)ns2)CC1 [Compound 24, N-(2,6-dimethylphenyl)-4-[3-(4-fluorobenzyl)-1,2,4-thiadiazol-5-yl]piperazine-1-carboxamide]
EC50: 1.2 µg/mL (≈ 2.82 µM)
%I: 124%

CC1CN(c2nc(Cc3ccc(F)cc3)ns2)CCN1C(=O)Nc1cccc2ccccc12 (stereo not drawn) [Compound 25, N-1-naphtyl-4-[3-(4-fluorobenzyl)-1,2,4-thiadiazol-5-yl]-2-methylpiperazine-1-carboxamide]
EC50: 1.69 µg/mL (≈ 3.66 µM)
%I: 97%

CC1CN(c2nc(Cc3ccc(F)cc3)ns2)CCN1C(=O)Nc1ccc(F)c(F)c1 (stereo not drawn) [Compound 26, N-(3,4-difluorophenyl)-4-[3-(4-fluorobenzyl)-1,2,4-thiadiazol-5-yl]-2-methylpiperazine-1-carboxamide]
%I: 70%

COc1ccc(NC(=O)N2CCN(c3nc(Cc4ccc(F)cc4)ns3)CC2)c(OC)c1 [Compound 27, N-(2,4-dimethoxyphenyl)-4-[3-(4-fluorobenzyl)-1,2,4-thiadiazol-5-yl]piperazine-1-carboxamide]
%I: 67%
